Measured values taken from publication PMC9409388 (2022).

Tests used:
[1] = test system: c-MYC (DNA, G4) GGGGAGGGTGGGGAGGGTGGGGAAGG; test: thiazole orange displacement (G4-FID); conditions: 100 mM KCl; 10 mM sodium cacodylate pH 7.3, 18 °C; thiazole orange displaced; from DC50, TO Kb 1.50 × 10^6
[2] = test system: WNT1 (DNA, G4) GGGGGCCACCGGGCAGGGGGCGGGGG; test: thiazole orange displacement (G4-FID); conditions: 100 mM KCl; 10 mM sodium cacodylate pH 7.3, 18 °C; thiazole orange displaced; from DC50, assumed TO Kb 2.5 × 10^6
[3] = test system: VEGF (VEGFA) (DNA, G4) GGGGCGGGCCGGGGGCGGGG; test: thiazole orange displacement (G4-FID); conditions: 100 mM KCl; 10 mM sodium cacodylate pH 7.3, 18 °C; thiazole orange displaced; from DC50, assumed TO Kb 2.5 × 10^6
[4] = test system: c-KIT (DNA, G4) GGGAGGGCGCTGGGAGGAGGG; test: thiazole orange displacement (G4-FID); conditions: 100 mM KCl; 10 mM sodium cacodylate pH 7.3, 18 °C; thiazole orange displaced; from DC50, assumed TO Kb 2.5 × 10^6
[5] = test system: BCL2 (DNA, G4) AGGGGCGGGCGCGGGAGGAAGGGGGCGGGAGCGGGGC; test: thiazole orange displacement (G4-FID); conditions: 100 mM KCl; 10 mM sodium cacodylate pH 7.3, 18 °C; thiazole orange displaced; from DC50, assumed TO Kb 2.5 × 10^6
[6] = test system: KRAS (DNA, G4) GGGCGGTGTGGGAAGAGGGAAGAGGGGGAGG; test: thiazole orange displacement (G4-FID); conditions: 100 mM KCl; 10 mM sodium cacodylate pH 7.3, 18 °C; thiazole orange displaced; from DC50, assumed TO Kb 2.5 × 10^6
[7] = test system: Tel (DNA, G4) GGGTTAGGGTTAGGGTTAGGGTTA; test: thiazole orange displacement (G4-FID); conditions: 100 mM KCl; 10 mM sodium cacodylate pH 7.3, 18 °C; thiazole orange displaced; from DC50, TO Kb 2.62 × 10^6
[8] = test system: DNA hairpin (DNA, hairpin) CAATCGGATCGAATTCGATCCGATTG; test: thiazole orange displacement (G4-FID); conditions: 100 mM KCl, 10 mM sodium cacodylate pH 7.3, 18 °C, thiazole orange displaced; for Kb: from DC50, TO Kb 3.03 × 10^6
[9] = test system: c-MYC (DNA, G4) GGGGAGGGTGGGGAGGGTGGGGAAGG; test: thiazole orange displacement (G4-FID); conditions: 100 mM KCl; 10 mM sodium cacodylate pH 7.3, 18 °C; 1 µM thiazole orange displaced, 0.5 µM DNA
[10] = test system: WNT1 (DNA, G4) GGGGGCCACCGGGCAGGGGGCGGGGG; test: thiazole orange displacement (G4-FID); conditions: 100 mM KCl, 10 mM sodium cacodylate pH 7.3, 18 °C
[11] = test system: VEGF (VEGFA) (DNA, G4) GGGGCGGGCCGGGGGCGGGG; test: thiazole orange displacement (G4-FID); conditions: 100 mM KCl, 10 mM sodium cacodylate pH 7.3, 18 °C
[12] = test system: c-KIT (DNA, G4) GGGAGGGCGCTGGGAGGAGGG; test: thiazole orange displacement (G4-FID); conditions: 100 mM KCl, 10 mM sodium cacodylate pH 7.3, 18 °C
[13] = test system: BCL2 (DNA, G4) AGGGGCGGGCGCGGGAGGAAGGGGGCGGGAGCGGGGC; test: thiazole orange displacement (G4-FID); conditions: 100 mM KCl, 10 mM sodium cacodylate pH 7.3, 18 °C
[14] = test system: KRAS (DNA, G4) GGGCGGTGTGGGAAGAGGGAAGAGGGGGAGG; test: thiazole orange displacement (G4-FID); conditions: 100 mM KCl, 10 mM sodium cacodylate pH 7.3, 18 °C
[15] = test system: Tel (DNA, G4) GGGTTAGGGTTAGGGTTAGGGTTA; test: thiazole orange displacement (G4-FID); conditions: 100 mM KCl, 10 mM sodium cacodylate pH 7.3, 18 °C
[16] = test system: DNA hairpin (DNA, hairpin) CAATCGGATCGAATTCGATCCGATTG; test: thiazole orange displacement (G4-FID); conditions: 100 mM KCl, 10 mM sodium cacodylate pH 7.3, 18 °C
[17] = test system: c-MYC (DNA, G4) GGGGAGGGTGGGGAGGGTGGGGAAGG; test: UV melting at 295 nm; conditions: 140 mM NaCl, 0.5 mM KCl; 20 mM Tris-HCl pH 7.3; 2 equivalents of compound, ~3 µM DNA
[18] = 1 µM thiazole orange displaced, 0.5 µM DNA
[19] = thiazole orange displaced, above highest stated concentration (10 µM)
[20] = thiazole orange displaced, highest concentration 10 µM

Row | SMILES | Kb [1] | Kb [2] | Kb [3] | Kb [4] | Kb [5] | Kb [6] | Kb [7] | Kb [8] | DC50 [9] [µM] | DC50 [10, 18] [µM] | DC50 [11, 18] [µM] | DC50 [12, 18] [µM] | DC50 [13, 18] [µM] | DC50 [14, 18] [µM] | DC50 [15, 18] [µM] | DC50 [16, 19] [µM] | increase in Tm [17] [°C] | other results
1 | O=c1c(O)c(-c2ccc(O)cc2)oc2cc(O)cc(O)c12 | 1.16 ± 0.08 × 10^6 M^-1 | 3.03 ± 0.43 × 10^6 M^-1 | 2.09 ± 0.30 × 10^6 M^-1 | 1.63 ± 0.23 × 10^6 M^-1 | 1.75 ± 0.25 × 10^6 M^-1 | 1.63 ± 0.23 × 10^6 M^-1 | 1.81 ± 0.14 × 10^6 M^-1 | 0.035 ± 0.002 × 10^6 M^-1 | 2.16 ± 0.15 | 1.16 ± 0.16 | 1.67 ± 0.24 | 2.15 ± 0.30 | 2.00 ± 0.28 | 2.15 ± 0.31 | 2.00 ± 0.15 | 114.29 ± 6.53 | – | –
2 | O=c1c(O)c(-c2ccc(O)c(O)c2)oc2cc(O)cc(O)c12 | 5.33 ± 0.36 × 10^6 M^-1 | 2.07 ± 0.30 × 10^6 M^-1 | 3.10 ± 0.44 × 10^6 M^-1 | 3.80 ± 0.54 × 10^6 M^-1 | 5.56 ± 0.79 × 10^6 M^-1 | 1.72 ± 0.25 × 10^6 M^-1 | 7.43 ± 0.55 × 10^6 M^-1 | 0.038 ± 0.004 × 10^6 M^-1 | 0.47 ± 0.03 | 1.69 ± 0.24 | 1.13 ± 0.16 | 0.92 ± 0.13 | 0.63 ± 0.09 | 2.03 ± 0.30 | 0.49 ± 0.04 | 105.26 ± 11.08 | 3.0 ± 0.3 | –
3 | COc1cc(/C=C/C(=O)CC(=O)/C=C/c2ccc(O)c(OC)c2)ccc1O | 0.26 ± 0.02 × 10^6 M^-1 | – | – | – | – | – | – | – | 9.62 ± 0.70 | – | – | – | – | – | – | – | – | DC50 [10, 20]: > 10 µM; DC50 [11, 20]: > 10 µM; DC50 [12, 20]: > 10 µM; DC50 [13, 20]: > 10 µM; DC50 [14, 20]: > 10 µM; DC50 [15, 20]: > 10 µM

Further lines, with some results ahead:

Row | Kb [1] | Kb [2] | Kb [3] | Kb [4] | Kb [5] | Kb [6] | Kb [7] | Kb [8] | DC50 [9] [µM] | DC50 [10, 18] [µM] | DC50 [11, 18] [µM] | DC50 [12, 18] [µM] | DC50 [13, 18] [µM] | DC50 [14, 18] [µM] | DC50 [15, 18] [µM] | DC50 [16, 19] [µM] | increase in Tm [17] [°C] | SMILES | other results
4 | 7.76 ± 0.53 × 10^6 M^-1 | 2.83 ± 0.40 × 10^6 M^-1 | 0.86 ± 0.12 × 10^6 M^-1 | 3.28 ± 0.47 × 10^6 M^-1 | 4.12 ± 0.59 × 10^6 M^-1 | 0.93 ± 0.13 × 10^6 M^-1 | 0.43 ± 0.03 × 10^6 M^-1 | 1.30 ± 0.17 × 10^6 M^-1 | 0.32 ± 0.02 | 1.24 ± 0.17 | 4.07 ± 0.57 | 1.07 ± 0.15 | 0.85 ± 0.12 | 3.76 ± 0.53 | 8.42 ± 0.59 | – | 3.5 ± 0.3 | C[n+]1cc2c3c(ccc2c2ccc4cc5c(cc4c21)OCO5)OCO3 | DC50 [16, 18]: 3.08 ± 0.40 µM
5 | 0.63 ± 0.04 × 10^6 M^-1 | 2.71 ± 0.39 × 10^6 M^-1 | 1.50 ± 0.21 × 10^6 M^-1 | 1.61 ± 0.23 × 10^6 M^-1 | 2.87 ± 0.41 × 10^6 M^-1 | 1.52 ± 0.22 × 10^6 M^-1 | 1.68 ± 0.13 × 10^6 M^-1 | – | 3.97 ± 0.25 | 1.29 ± 0.19 | 2.33 ± 0.33 | 2.17 ± 0.31 | 1.22 ± 0.10 | 2.30 ± 0.33 | 2.15 ± 0.17 | – | – | CC1=CC(=O)C(C(C)C)=CC1=O | binding ([8]; Kb printed as 0, up to 10 µM): no
6 | 2.94 ± 0.20 × 10^6 M^-1 | 2.75 ± 0.39 × 10^6 M^-1 | 1.75 ± 0.25 × 10^6 M^-1 | 1.44 ± 0.21 × 10^6 M^-1 | 3.65 ± 0.52 × 10^6 M^-1 | 1.62 ± 0.23 × 10^6 M^-1 | 1.81 ± 0.14 × 10^6 M^-1 | – | 0.85 ± 0.06 | 1.27 ± 0.18 | 2.00 ± 0.28 | 2.43 ± 0.35 | 0.96 ± 0.14 | 2.16 ± 0.31 | 2.00 ± 0.15 | – | – | O=C(O[C@@H]1Cc2c(O)cc(O)cc2O[C@@H]1c1cc(O)c(O)c(O)c1)c1cc(O)c(O)c(O)c1 | –
